Reference: ChEMBL document CHEMBL4229452, “Expanding chemical space of DNA-binding molecules with three base-binding units” (Bioorg Med Chem Lett, 2018)
Active and inactive are the calls of the source. The calls are words filed in the database; no cut-off is given here.

Assays:
Format in all cases: nucleic-acid assay
dsDNA [1] = test: Binding affinity to 5'-(CTAA CGG AATG)-3'/5'-(CATT CGG TTAG)-3' duplex DNA (unknown origin) assessed as change in melting temperature at 20 uM by UV-spectrophotometric method
dsDNA [2] = test: Binding affinity to 5'-(CTAA GGC AATG)-3'/5'-(CATT GGC TTAG)-3' duplex DNA (unknown origin) assessed as change in melting temperature at 20 uM by UV-spectrophotometric method
dsDNA [3] = test: Binding affinity to 5'-(CTAA CGG AATG)-3'/5'-(CATT CGG TTAG)-3' duplex DNA (unknown origin) assessed as apparent association […] constant at 60 uM by isothermal titration calorimetric method
dsDNA [4] = test: Binding affinity to 5'-(CTAA CGG AATG)-3'/5'-(CATT CGG TTAG)-3' duplex DNA (unknown origin) at 7.5 uM by fluorescence titration method
dsDNA [5] = test: Binding affinity to 5'-(CTAA GGC AATG)-3'/5'-(CATT GGC TTAG)-3' duplex DNA (unknown origin) at 7.5 uM by fluorescence titration method
dsDNA [6] = test: Binding affinity to 5'-(CTAA CGG AATG)-3'/5'-(CATT GGC TTAG)-3' duplex DNA (unknown origin) assessed as melting temperature at 5 uM by fluorimetric method
dsDNA [7] = test: Binding affinity to 5'-(CTAA CGA AATG)-3'/5'-(CATT GGT TTAG)-3' duplex DNA (unknown origin) assessed as melting temperature at 5 uM by fluorimetric method
dsDNA [8] = test: Binding affinity to 5'-(CTAA CGT AATG)-3'/5'-(CATT GGA TTAG)-3' duplex DNA (unknown origin) assessed as melting temperature at 5 uM by fluorimetric method
dsDNA [9] = test: Binding affinity to 5'-(CTAA GGC AATG)-3'/5'-(CATT CGG TTAG)-3' duplex DNA (unknown origin) assessed as melting temperature at 5 uM by fluorimetric method
dsDNA [10] = test: Binding affinity to 5'-(CTAA GGA AATG)-3'/5'-(CATT CGT TTAG)-3' duplex DNA (unknown origin) assessed as melting temperature at 5 uM by fluorimetric method
dsDNA [11] = test: Binding affinity to 5'-(CTAA GGT AATG)-3'/5'-(CATT CGA TTAG)-3' duplex DNA (unknown origin) assessed as melting temperature at 5 uM by fluorimetric method
dsDNA [12] = test: Binding affinity to 5'-(CTAA CGG AATG)-3'/5'-(CATT CGG TTAG)-3' duplex DNA (unknown origin) at < 10 uM by fluorescence titration method
dsDNA [13] = test: Binding affinity to 5'-(CTAA GGC AATG)-3'/5'-(CATT GGC TTAG)-3' duplex DNA (unknown origin) at < 10 uM by fluorescence titration method

| Compound | ΔTm (dsDNA [1]) | ΔTm (dsDNA [2]) | Activity (dsDNA [3]) | Activity (dsDNA [4]) | Activity (dsDNA [5]) | Tm (dsDNA [6]) | Tm (dsDNA [7]) | Tm (dsDNA [8]) | Tm (dsDNA [9]) | Tm (dsDNA [10]) | Tm (dsDNA [11]) | Ka (dsDNA [3]) | Activity (dsDNA [12]) | Activity (dsDNA [13]) |
| --- | --- | --- | --- | --- | --- | --- | --- | --- | --- | --- | --- | --- | --- | --- |
| Cc1ccc2ccc(NC(=O)OCCCN(CCCOC(=O)Nc3ccc4ccc(C)nc4n3)CCCOC(=O)Nc3ccc4ccc(C)nc4n3)nc2n1 | 22.9 °C | 1.6 °C | inactive | Active | Active | 26.5 °C | 24.1 °C | 24.9 °C | 34.7 °C | 26.7 °C | 27.1 °C | – | – | – |
| Cc1ccc2ccc(NC(=O)OCCCNCCCOC(=O)Nc3ccc4ccc(C)nc4n3)nc2n1 | 23 °C | 2 °C | – | – | – | – | – | – | – | – | – | 2.09 ×10⁷ /M | Active | Active |
